Results on one compound are retold here after patent US20240173325A1, “METHODS FOR TREATING SPINAL MUSCULAR ATROPHY” (Genentech, Inc., priority 2022, published 2024).

The test system of one data set is neonatal subject. Nature of the data set: Electrophysiological testing (CMAP, MUNE). It is filed as in vivo, human. Here is the method: The electrophysiological testing described in this Example can serve as a prognostic biomarker. See Pino (2021) Biomark. Insights. 16:11772719211035643. Electrophysiological studies were performed using standard technique on a Natus UltraPro S100 instrument, with Natus pre-gelled disposable surface electrodes (#901350242) and standard settings for motor nerve conduction studies (LFF 10 Hz and HFF […]). The right ulnar nerve was stimulated at the elbow and recorded from the abductor digiti minimi (ADM) and the peroneal (fibular) nerve was stimulated at the knee and recorded from the tibialis anterior (TA) muscle.
Electrophysiological measurements, such as the compound muscle action potential (CMAP) in millivolts (mV) and motor unit number estimation (MUNE), monitor the functional status of the motor unit pool and are particularly pertinent to motor neuron disorders. See Arnold (2014) Ann. Clin. Transl. Neurol. 1(1):34:44. Cross-sectional studies have shown that CMAP and MUNE correlate with other measures of motor function, clinical severity, and overall function. See Arnold (2014) Ann. Clin. Transl. Neurol. 1(1):34:44.
The CMAP response measures the output of the motor units supplying a particular muscle or group of muscles. The CMAP size is determined by the size and number of depolarized muscle fibers following supramaximal nerve stimulation. Three active electrode placements were used for each nerve tested and the maximal amplitude of the negative peak of the CMAP was used for analysis. As a reference study for the CMAP data provided in Table 6, an ongoing Phase 2, open-label study (NURTURE) aims to evaluate the safety and efficacy of nusinersen in preventing or profoundly attenuating the severity of SMA when initiated prior to the onset of symptoms. See De Vivo (2019) Neuromuscul. Disord. 29(11):842-856. In accordance with this reference study, CMAP amplitudes were mean (SD) 2.7 (1.5) and median (range) 2.3 (1.0-6.7) and NeuroNEXT (typically developing infants) was mean (SD) 5.5±2.0. See Kolb (2016) Ann. Clin. Transl. Neurol. 3(2):132-45.
MUNE is an electrophysiological method that can measure the number of motor units supplying a particular muscle. It should be appreciated that the “N” of MUNE (ulnar N) in Table 6 refers to “nerve.” For pre-symptomatic SMA neonates, MUNE (ulnar N) ranges from 70-270. See Bromberg (2002) Muscle Nerve. 25(3):445-7; and Swoboda (2005) Ann Neurol. 57(5):704-12. In this Example, the MUNE was performed on the right ulnar nerve using the multipoint technique. A minimum of ten unique single motor unit potentials were captured with the mean value used for the calculation of the MUNE. […] See Swoboda, et al. (2005) Ann. Neurol. 57:704-712; and Bromberg (2002) Muscle Nerve 25:445-447.

A further data set concerns rat fetuses. As to conditions: dams treated at about 1 mg/kg/day to about 7.5 mg/kg/day; cited from earlier work.
In another data set the test system is neurofilament. Nature of the data set: Neurofilament light and phosphorylated heavy chain ELISA on plasma and serum. Type of data set: in vivo, human. Here is the method:
Neurofilament light and phosphorylated heavy chain assays were performed on plasma and serum samples using an ELISA assay, following the manufacturer's instructions (ProteinSimple, San Jose, CA, USA). Two runs were performed, each run having 3 aliquots run on the same plate and the mean value utilized. The average of the two runs was used for interpretation and in constructing FIG. 3 and FIG. 4.
The x-axis in FIG. 3 and FIG. 4 is associated with the date. The x-axis in FIG. 3 includes both prenatal dates (e.g., 32.5 WG or weeks gestation-37.6 WG) and postnatal dates or “PND” (e.g., d0-d43, referring to days post-birth of the fetal subject as the neonatal subject). The y- axis in FIG. 3 and FIG. 4 is associated with the mean neurofilament levels in blood (measured in pg/mL).
Further, in FIG. 3 and FIG. 4, “NF-L” refers to “neurofilament light chain,” which is a neuronal protein highly expressed in large caliber myelinated axons. NF-L levels increase in cerebrospinal fluid and blood proportionally to the degree of axonal damage in a variety of neurological disorders, including inflammatory, neurodegenerative, traumatic and cerebrovascular diseases. See Gaetani (2019) J. Neurol. Neurosurg. Psychiatry. 90(8):870-881. Additionally, “pNF-H” refers to the phosphorylated neurofilament heavy subunit (or phosphorylated NF-H). Further, as shown in FIG. 3 and FIG. 4, “Ser” refers to blood serum and “Pla” refers to blood plasma.
Background: ELISA stands for enzyme-linked immunosorbent assay.

Take `Cc1cn2nc(-c3cc(=O)n4cc(N5CCNC6(CC6)C5)ccc4n3)cc(C)c2n1` [risdiplam, 7-(4,7-diazaspiro[2.5]octan-7-yl)-2-(2,8-dimethylimidazo[1,2-b]pyridazin-6-yl)-4H-pyrido[1,2-a]pyrimidin-4-one]: in the data set with neonatal subject (1 week), the “MUNE (Ulnar N)” value is given as 167, the “Peroneal N CMAP” value was found to be 2.7 mV, the “Ulnar N CMAP” value is given as 4.6 mV and the “Ulnar nerve CMAP relative to NURTURE median 2.3 mV” value is listed as 2 fold. In the data set on neonatal subject (6 weeks), the “MUNE (Ulnar N)” value worked out at 313, the “Peroneal N CMAP” value amounted to 3.5 mV, the “Ulnar N CMAP” value was determined as 5.8 mV and the “Ulnar nerve CMAP relative to NURTURE median 2.3 mV” value is given as 2.5 fold. Further, in the data set on neonatal subject (18 weeks), the “MUNE (Ulnar N)” value is 296 and the “Ulnar N CMAP” value is recorded as 7.1 mV. Also, in the data set on rat fetuses, the “Findings in rat fetuses” value was “weight loss and minor differences in skeletal ossification”. The “pNF-H level in neonatal subject compared to the carrier” value in the data set on neurofilament (at delivery) is “about 10 fold”. For the same compound, in the data set with neurofilament (carrier and neonatal subject, FIG. 3 and FIG. 4), the NF-L levels result is “low, with little change”. In addition, in the data set with neurofilament (carrier, 6-week observation period), the “Increase of post-partum pNF-H levels” value was “approximately 2 fold”. Also, the “pNF-H level relative to lowest value in NURTURE study participants” value in the data set with neurofilament (neonatal subject) turned out to be 35%. The “pNF-H level relative to NURTURE median value (20881)” value in the data set on neurofilament (neonatal subject versus pre-symptomatic SMN2X2 infants under 6 weeks) is 1.4%. The same compound returned a pNF-H level in the data set with neurofilament (neonatal subject, data point of FIG. 4 correlated to FIG. 5) of 293 pg/mL.
